How the values were obtained:
[1] = test system: recombinant HIV, recombinant MLV, or replication-competent HIV; assay type: cell-based
Description: The presence of a selectable marker gene in the recombinant HIV allowed the isolation of cells infected by the recombinant viruses in the presence of d4T. These cells were characterized by infection with both additional recombinant viruses and by replication-competent viruses.
(§1) Table 6. Colony formation and persistent resistance after Hela-T4 cell infection with MLV-neo virus in the presence and absence of various antiviral agents.

[2] = test system: HIV-LacZ; assay type: cell-based
[3] = test system: HIV-1 IIIB; assay: HIV-1 IIIB infection of Jurkat JE6.1 cell populations, AZT IC50 with FUdR (RT activity); assay type: cell-based; conditions: for IC50: Human immunodeficiency virus 1, IIIB, Jurkat, 144 h, concentration of AZT for 50% inhibition of RT activity at day 6, F = μM FUdR
Description: HIV-1 production in infected, cultures was determined by a ^32P-based assay as described (34). RT activity was determined by […] of ^32P bound to the DE81 paper by using a Molecular Dynamics phosphorimager. The results are reported as pixel units per microliter of the reaction mixture.
In these experiments, three populations of cells were studied.

[4] = HPLC analysis of phosphorylated AZT metabolites in clones incubated with 3H-AZT; assay type: in vitro ADME; conditions: 3H-AZT for 4 hours, HPLC
Description: Cell lines were incubated with ^3H-thymidine or ^3H-AZT for 4 hours. Dried methanol extracts of the clones were redissolved in 60 μof distilled water and centrifuged to remove undissolved material. Twenty microliters of the sample was injected and separated on a 10×100 mm Rainin Hydropore anion exchange column. The nucleosides were eluted from the column with a linear gradient of potassium phosphate (5 mM to 1 M, pH4.0) at a flow rate of 1 ml/min. The samples were collected (0.5 ml), mixed with 5 ml Packard scintillation fluid, and quantitated using a liquid scintillation counter. Phosphorylated derivatives of thymidine and AZT were identified with authentic standards.
Pool sizes were determined by incubation of cells with ^3H-AZT for 4 hours followed by cellular extraction and HPLC. The numbers are expressed as pmoles/10^6 cells. The numbers in parentheses represent the percentage of total radioactive species in that pool.

[5] = test system: HIV-1IIIB; assay: HIV-1IIIB infection of S1 and R116 cells with AZT and FUdR (RT activity); assay type: cell-based; conditions: 0.1 μM AZT
Description: Infected cells were isolated in gpt selective media and expanded into cell lines. […] Cell line S1 is a control cell line.
Cell free supernatants were assayed for RT activity every two days. Results are the mean of triplicate cultures. Standard deviations were <15%.

[6] = test system: R116 cell line; assay: MTT cytotoxicity assay in R116 cells; assay type: cell-based; conditions: persistently resistant clone R116, three days
Description: Three days later, drug cytotoxicity was quantitated with a standard MTT assay in which the uptake and metabolism of 3-[4,5-dimethylthiazol-2-yl]2,5-dephenyltetrazolium bromide (MTT) by cells was measured (14). The amount of formazan produced in 2 hours was determined by dissolving the product in 100% DMSO and then measuring the absorbance at 570 nm.
HeLa-T4 is the parental cell line.
Cells sensitive, parental HT4 (open circle), S1 (solid square), Spool (solid circle) and refractory, R116 (open square) were grown in the presence of various concentrations of FUdR. Three days latter, cell viability was determined by the MTT reduction method.

[7] = test system: HIV-gpt; assay: HIV-gpt colony formation after infection of HeLa-T4 cells in the presence of antiretroviral agents; assay type: cell-based; conditions: for Number of colonies +AZT: colonies by day 10
[8] = test system: MLV-neo; assay: MLV-neo colony formation in the presence of antiviral agents; assay type: cell-based, Moloney Leukemia virus; conditions: Hela-T4, AZT 10 uM, DDI 50 uM, DDC 10 uM, D4T 50 uM, control 9050
Description: Production of recombinant HIV-gpt has been described elsewhere (26). The amphotropic cell line PA317 was transfected with the recombinant murine retrovirus pLXSN (36) and was used as the source of the recombinant MLV-neo virus. Stock preparations of HIV-1IIIB were harvested from H9 cells by the “shake off method” (13). Stock virus infectivity was determined by end-point dilution in MT-2 cells (32). Virus induced cytopathic effect was scored 7 days post-infection and the TCID50 was calculated with the Reed and Muench equation (33).
To confirm this high rate of infection in the absence of genetic drug resistance, we used several other recombinant viruses and host cells. […] A high rate of infection of Jurkat cells in the presence of d4T has also been seen.
Table 5. HIV-gpt produced in COS cells by transfection with plasmids (plasmid derived) is compared with HIV-gpt produced by, rescue from H9/HIV-gpt cell line after infection with HIV-IIIB and cells infected with MLV-neo.
as §1

[9] = test system: HIV-1IIIB; conditions: same AZT concentration as for the persistently resistant clone

Structure (SMILES): Cc1cn([C@H]2C[C@H](N=[N+]=[N-])[C@@H](CO)O2)c(=O)[nH]c1=O [AZT, 3′-Azido-3′-deoxythymidine]
- subset of cells persistently refractory to d4T that were also refractory to the antiviral effects of AZT [1]: approximately 20%
- Frequency ([1]; frequency of persistently resistant colonies, Hela-T4, MLV-neo): 2.2 × 10^−4
- inhibition of HIV-LacZ infection ([2]; 10 μM AZT, nine of twelve cell lines, like wild type HeLa-T4 cells): complete inhibition of infection
- Frequency ([2]; frequency of persistently resistant colonies, HeLa-T4, plasmid derived HIV-gpt): 3.4 × 10^−4
- IC50 ([3]; JE6.1AZTR cells (refractory to AZT)): 0.6 µM
- IC50 ([3]; JE6.1Con cells (control)): 0.2 µM
- IC50 ([3]; JE6.1 cells): 0.3 µM
- increase AZT IC50 ([3]; JE6.1AZTR entire population): 2 fold
- concentration in cells ([4]; R116 (“persistently resistant”) cell line): 0.0155 pmoles/10^6 cells
- concentration in cells ([4]; S1 (sensitive) cell line): 0.0206 pmoles/10^6 cells
- HIV replication in the presence of drug ([5]; R116 cell line refractory to AZT, FIG. 7B): significant HIV replication
- antiviral efficacy ([5]; control S1 cell line, multiplicity of infection of 1, FIG. 7A): potent antiviral efficacy
- cytotoxic concentration that killed 50% [6]: greater than 1 mM
- Number of colonies ([7]; HeLa-T4, plasmid derived HIV-gpt (COS cells), AZT 10 μM, DDI 50 μM, D4T 50 μM, no drug control 8800): 12
- Frequency of colony formation in the presence of AZT ([7]; HeLa-T4 cells, 10 μM AZT, HIV-gpt by rescue with HIV-1): 5.0 × 10^−4
- Number of colonies +AZT ([7]; HeLa-T4 cells, 10 μM AZT, HIV-gpt by rescue with HIV-1, −AZT 1.8 × 10^4): 9
- Frequency of colony formation in the presence of AZT ([7]; HeLa-T4 cells, 10 μM AZT, plasmid-derived (COS cells) HIV-gpt): 5.2 × 10^−4
- Number of colonies +AZT ([7]; HeLa-T4 cells, 10 μM AZT, plasmid-derived (COS cells) HIV-gpt, −AZT 3.1 × 10^4): 16
- prevalence of colony formation after infection in the presence of AZT ([7]; HeLa-T4 cells, 10 μM AZT, similar with the two preparations of HIV-gpt): ~5×10^−4
- No. of colonies [8]: 12
- inhibition of infection of control cells by replication-competent HIV [9]: virtually complete inhibition

From US6576622B1, “Drug combination for the treatment of viral diseases” (University of Medicine & Dentistry of New Jersey, priority 1995, dated 2003)
